{"source": "patent US20250325676A1", "about": "“CAMPTOTHECIN PRODRUG AND PHARMACEUTICAL COMPOSITION THEREOF” (TIANJIN HEMAY ONCOLOGY PHARMACEUTICAL CO., LTD, priority 2022, published 2025)", "key": {"[1]": {"tested_on": "human pancreatic cancer BxPC-3", "details": "30 mg/kg i.v. qw × 2", "quoted_text": "(§4) When the tumor volume of the allogeneic transplantation was about 100 to 300 mm^3 and remained stable, the experimental animals were randomly divided into groups according to the size of the tumor volume (day 0) by using a remainder method. The tumor volume was measured 2 to 3 times a week. At the end of the dosage period, the experimental animals were sacrificed. The subcutaneous tumors were peeled and weighed. The anti-tumor activity of the drug against the model was evaluated based on tumor volume and tumor weight-related data.\n(§5) The calculation formula of the tumor volume was: Volume=0.5×long diameter×short diameter×short diameter.\n(§6) V0 was the resulting tumor volume measured at the time of dosing in groups (i.e., d0) and Vt was the tumor volume at each measurement.\n(§7) T was the subject and C was the model control.\n(§8) TRTV was the average RTV of the subject, and CRTV was the average RTV of the model control group.\n(§9) Wn: average body weight of each group of experimental animals on day n, and W0: average body weight of each group of experimental animals on day 0.\n(§10) In the large tumor efficacy test after the second grouping of the G5 group, since the number of samples in each group of G6.1 and G6.4 was less than three, the relevant data of the large tumor efficacy test were statistically analyzed among groups using the T-Test method."}, "[2]": {"tested_on": "LoVo", "assay": "In vitro inhibition of human tumor cells, LoVo, SRB method", "type": "cell-based", "from_the_text": "(§1) The cells were allowed to adhere overnight.\n(§2) Trichloroacetic acid was removed. […] Excess SRB was removed.\n(§3) The DMSO concentration was 0.1%."}, "[3]": {"tested_on": "MDA-MB-468", "assay": "In vitro inhibition of human tumor cells, MDA-MB-468, SRB method", "quoted_text": "(§11) 1.1.2 Cell culture method: Cells were cultured in complete medium, 37° C., 5% CO2, saturated humidity to log growth phase (adherent cells generally attended to complete fusion), and cells were collected for subsequent experiments (adherent cells were first digested with trypsin/ethylene diamine tetraacetic acid (EDTA) to remove adherent).\n(§12) 1.1.3 96-well cell culture plates (hereinafter referred to as 96-well plates) were inoculated with a certain number of cells (see Table 1 for details). The cells were allowed to adhere overnight. […] Finally, the total amount of cell protein in the assay wells was determined by the SRB method, or the cell viability was determined by the MTT method:\n(§13) The culture medium was aspirated from the wells and the cells were fixed for 1 hour or more by adding 10% trichloroacetic acid. Trichloroacetic acid was removed. The resultant was washed with H2O and stained with 0.4% SRB for 15 to 30 minutes. Excess SRB was removed. The resultant was washed with 1% acetic acid. The protein-bound SRB was dissolved by adding 10 mM of 100 μl Tris (trishydroxymethylaminomethane). Tests were carried out at the wavelength of 570 nm.\n(§14) 1.1.4 dilution and addition of β-glucuronidase: 1 to 2 mg of β-glucuronidase was weighed and dissolved in PBS to give a 2 mg/ml of stock solution. […] 80 μl of enzyme working solution was added to the enzyme-containing assay wells. The amount of β-glucuronidase was 1 μg/wells. No enzyme-containing assay wells were added to the 80 μl of complete medium.\n(§15) The assay wells were charged with 20 μl of 10× compound working solution. The final volume was 200 μl per well. The DMSO concentration was 0.1%.\n(§16) 1.1.6 Compound inhibition activity calculation: The test included a compound test group, a compound-free positive solvent control group (PC) and a compound-free negative solvent control group (NC). […] The average inhibition rate and the standard deviation (SD) were obtained from the repeated test wells. The average inhibition rate was plotted on the basis of the compound concentration as an abscissa and distributed in the form of logarithms. The curve was fitted to the Logistic 4 parameter equation. […] The test was generally repeated to obtain 3 valid results."}, "[4]": {"tested_on": "SW620", "assay": "In vitro inhibition of human tumor cells, SW620, SRB method", "type": "cell-based", "from_the_text": "as §1, §2, §3"}, "[5]": {"tested_on": "human colon cancer HCT116", "details": "30 mg/kg i.v. qw × 2", "from_the_text": "When the tumor volume was more than 600 mm^3 and stable growth was maintained, the experimental animals were randomly divided by the remainder method and administered according to the size of the tumor volume. […] The subcutaneous tumors were stripped and weighed.\nT was the subject and C is the model control.\nTumor volume growth was observed on a regular basis after completion of dosing."}, "[6]": {"tested_on": "BxPC-3", "assay": "In vitro inhibition of human tumor cells, BxPC-3, MTT method", "type": "cell-based"}, "[7]": {"tested_on": "BEL-7404", "assay": "In vitro inhibition of human tumor cells, BEL-7404, SRB method", "quoted_text": "as §11, §12, §13, §14, §15, §16"}, "[8]": {"tested_on": "HCT116", "assay": "In vitro inhibition of human tumor cells, HCT116, MTT method", "type": "cell-based"}, "[9]": {"tested_on": "A375", "assay": "In vitro inhibition of human tumor cells, A375, SRB method", "quoted_text": "as §11, §12, §13, §14, §15, §16"}, "[10]": {"tested_on": "human colon cancer LoVo", "details": "30 mg/kg i.v. qw × 2, LoVo model", "quoted_text": "An allogeneic transplantation model of human colon cancer LoVo was established in nude mice subcutaneously using a tumor block inoculation method. When the tumor volume of the allogeneic transplantation was about 100 to 300 mm^3 and kept stable, the experimental animals were randomly divided into groups according to the tumor volume (day 0) by using a remainder method. The tumor volume was measured 2 to 3 times a week. At the end of the dosage period, the experimental animals were sacrificed. The subcutaneous tumors were peeled and weighed. The anti-tumor activity of the drug against the model was evaluated based on tumor volume and tumor weight-related data.\nas §5\nV0 was the resulting tumor volume measured at the time of dosing in groups (i.e., d0) and Vt is the tumor volume at each measurement.\nas §7\nTRTV was the average RTV of the subject and CRTV was the average RTV of the model control group.\nas §9"}, "[11]": {"tested_on": "human gastric cancer NCI-N87", "assay": "Growth of human gastric cancer NCI-N87 in allogeneic transplantation model", "type": "in vivo, nude mice", "description": "The tumor volume was measured 2 to 3 times per week. […] The subcutaneous tumors were peeled and weighed.\nThe calculation formula of the tumor volume: Volume=0.5×long diameter×short diameter×short diameter."}, "[12]": {"tested_on": "human small cell lung cancer NCI-H446", "details": "20 mg/kg i.v. qw × 2, NCI-H446 model", "quoted_text": "An allogeneic transplantation model of human small cell lung cancer NCI-H446 was established in nude mice subcutaneously using a tumor block inoculation method. When the tumor volume of the allogeneic transplantation was about 100 to 300 mm^3 and remained stable, the experimental animals were randomly divided into groups according to the size of the tumor volume (day 0, i.e., d0) using a remainder method. The tumor volume was measured 2 to 3 times a week. At the end of the dosage period, the experimental animals were sacrificed. The subcutaneous tumors were peeled and weighed. The anti-tumor activity of the drug against the model was evaluated based on tumor volume and tumor weight-related data.\nas §5, §6, §7, §8, §9"}, "[13]": {"tested_on": "human colon cancer HCT116", "assay": "Growth of human colon cancer HCT116 in allogeneic transplantation model", "type": "in vivo, nude mice", "quoted_text": "as §4, §5, §6, §8, §9"}, "[14]": {"tested_on": "human pancreatic cancer BxPC-3", "assay": "Growth of human pancreatic cancer BxPC-3 in allogeneic transplantation model", "type": "in vivo, nude mice", "details": "25 mg/kg i.v. qw × 2, BxPC-3 model", "quoted_text": "as §4, §5, §6, §7, §8, §9, §10"}, "[15]": {"tested_on": "human colon cancer SW620", "details": "30 mg/kg i.v. qw × 2, SW620 model", "quoted_text": "An allogeneic transplantation model of human colon cancer SW620 was established in nude mice subcutaneously using a tumor block inoculation method. When the tumor volume of the allogeneic transplantation was about 100 to 300 mm^3 and remained stable, the experimental animals were randomly divided into groups according to the size of the tumor volume (day 0) by using a remainder method. The tumor volume was measured 2 to 3 times a week. At the end of the dosage period, the experimental animals were sacrificed. The subcutaneous tumors were peeled and weighed. The anti-tumor activity of the drug against the model was evaluated based on tumor volume and tumor weight-related data.\nas §5, §6\nTRTV was the average value of RTV of the subject, and CRTV was the average RTV of the model control group.\nas §9"}, "[16]": {"tested_on": "Fadu", "assay": "In vitro inhibition of human tumor cells, Fadu, MTT method", "type": "cell-based"}, "[17]": {"tested_on": "NCI-N87", "assay": "In vitro inhibition of human tumor cells, NCI-N87, MTT method", "type": "cell-based"}, "[18]": {"tested_on": "22RV1", "assay": "In vitro inhibition of human tumor cells, 22RV1, SRB method", "quoted_text": "as §11, §12, §13, §14, §15, §16"}, "[19]": {"tested_on": "NCI-H460", "assay": "In vitro inhibition of human tumor cells, NCI-H460, MTT method", "type": "cell-based"}, "[20]": {"details": "BxPC-3 large tumors after irinotecan"}, "[21]": {"details": "HCT116 large tumor after irinotecan"}}, "note": "Read-outs that look alike come from different tables or passages of the source.", "data": [{"compound": "CCc1c2c(nc3ccc(OCc4ccc(O[C@@H]5O[C@H](C(=O)[O-])[C@@H](O)[C@H](O)[C@H]5O)cc4OCc4cn(CCCCCC(=O)Nc5ccc(-c6ccc(/N=N/c7ccc8c(S(=O)(=O)[O-])cc(S(=O)(=O)[O-])c(N)c8c7O)c(C)c6)cc5C)nn4)cc13)-c1cc3c(c(=O)n1C2)COC(=O)[C@]3(O)CC.[Na+].[Na+].[Na+]", "note": "[Example 7, (2S,3S,4S,5R,6S)-6-(3-((1-(6-((4′-((E)-(8-amino-1-hydroxy-5,7-disulfonicnaphthalen-2-yl)diazenyl)-3,3′-dimethyl-[1,1′-biphenyl]-4-yl)amino)-6-oxohexyl)-1H-1,2,3-triazol-4-yl)methoxy)-4-((((S)-4,11-diethyl-4-hydroxy-3,14-dioxy-3,4,12,14-tetrahydro-1H-pyrano[3′,4′:6,7]indolazino[1,2-b]quinolin-9-yl)oxy)methyl)phenoxy)-3,4,5-trihydroxytetrahydro-2H-pyran-2-carboxylate trisodium]", "values": [{"measurement": "Relative volume RTV (X ± S.D.)", "setting": "[1]; [20]", "value": "0.28 ± 0.03"}, {"measurement": "T/C (%)", "setting": "[1]; [20]", "value": 7.7, "unit": "%"}, {"measurement": "Tumor inhibition rate (%)", "setting": "[1]; [20]", "value": 94.2, "unit": "%"}, {"measurement": "Tumor weight (g, X ± S.D.)", "setting": "[1]; [20]", "value": "0.174 ± 0.164", "unit": "g"}, {"measurement": "Final body weight change (%)", "setting": "[1]; BxPC-3 tumors more than 600 mm^3 after irinotecan 100 mg/kg i.p. qw × 2", "value": "−0.3", "unit": "%"}, {"measurement": "IC50", "setting": "[2]; Adding βGU", "value": 0.019, "unit": "µM"}, {"measurement": "IC50", "setting": "[2]; No βGU", "value": 0.253, "unit": "µM"}, {"measurement": "IC50", "setting": "[3]; Adding βGU", "value": 0.0068, "unit": "µM"}, {"measurement": "IC50", "setting": "[3]; No βGU", "value": 0.07, "unit": "µM"}, {"measurement": "IC50", "setting": "[4]; Adding βGU", "value": 0.0069, "unit": "µM"}, {"measurement": "IC50", "setting": "[4]; No βGU", "value": 0.306, "unit": "µM"}, {"measurement": "Relative volume RTV (X ± S.D.)", "setting": "[5]; [21]", "value": "1.10 ± 0.16"}, {"measurement": "T/C (%)", "setting": "[5]; [21]", "value": 29.6, "unit": "%"}, {"measurement": "Tumor inhibition rate (%)", "setting": "[5]; [21]", "value": 73.6, "unit": "%"}, {"measurement": "Tumor weight (g, X ± S.D.)", "setting": "[5]; [21]", "value": "0.720 ± 0.492", "unit": "g"}, {"measurement": "Final body weight change (%)", "setting": "[5]; HCT116 tumors more than 600 mm^3 after irinotecan 100 mg/kg qw×2", "value": "−10.7", "unit": "%"}, {"measurement": "IC50", "setting": "[6]; Adding βGU", "value": 0.027, "unit": "µM"}, {"measurement": "IC50", "setting": "[6]; No βGU", "value": 1.11, "unit": "µM"}, {"measurement": "IC50", "setting": "[7]; Adding βGU", "value": 0.033, "unit": "µM"}, {"measurement": "IC50", "setting": "[7]; No βGU", "value": 0.514, "unit": "µM"}, {"measurement": "IC50", "setting": "[8]; Adding βGU (β-glucuronidase)", "value": 0.0039, "unit": "µM"}, {"measurement": "IC50", "setting": "[8]; No βGU (direct effects of compound on cells)", "value": 0.147, "unit": "µM"}, {"measurement": "IC50", "setting": "[9]; Adding βGU", "value": 0.01, "unit": "µM"}, {"measurement": "IC50", "setting": "[9]; No βGU", "value": 0.6, "unit": "µM"}, {"measurement": "T/C (%)", "setting": "[10]", "value": 12.3, "unit": "%"}, {"measurement": "Tumor inhibition rate (%)", "setting": "[10]", "value": 91.1, "unit": "%"}, {"measurement": "Final body weight change (%)", "setting": "[10]; nude mouse", "value": 0.0, "unit": "%"}, {"measurement": "Relative volume RTV (X ± S.D.)", "setting": "[11]; 20 mg/kg i.v. qw × 2", "value": "0.69 ± 0.15"}, {"measurement": "T/C (%)", "setting": "[11]; 20 mg/kg i.v. qw × 2", "value": 13.6, "unit": "%"}, {"measurement": "Tumor inhibition rate (%)", "setting": "[11]; 20 mg/kg i.v. qw × 2", "value": 94.2, "unit": "%"}, {"measurement": "Tumor weight (g, X ± S.D.)", "setting": "[11]; 20 mg/kg i.v. qw × 2", "value": "0.069 ± 0.009", "unit": "g"}, {"measurement": "Final body weight change (%)", "setting": "[11]; 20 mg/kg i.v. qw × 2, nude mouse", "value": 13.6, "unit": "%"}, {"measurement": "Relative volume RTV (X ± S.D.)", "setting": "[12]", "value": "0.11 ± 0.02"}, {"measurement": "T/C (%)", "setting": "[12]", "value": 1.5, "unit": "%"}, {"measurement": "Tumor inhibition rate (%)", "setting": "[12]", "value": 98.9, "unit": "%"}, {"measurement": "Tumor weight (g, X ± S.D.)", "setting": "[12]", "value": "0.011 ± 0.005", "unit": "g"}, {"measurement": "Final body weight change (%)", "setting": "[12]; nude mouse", "value": 4.1, "unit": "%"}, {"measurement": "T/C (%)", "setting": "[13]; 10 mg/kg i.v. qw × 2", "value": 13.3, "unit": "%"}, {"measurement": "Tumor inhibition rate (%)", "setting": "[13]; 10 mg/kg i.v. qw × 2", "value": 90.0, "unit": "%"}, {"measurement": "Final body weight change (%)", "setting": "[13]; 10 mg/kg i.v. qw × 2, nude mouse", "value": "−12.8", "unit": "%"}, {"measurement": "Relative volume RTV (X ± S.D.)", "setting": "[14]", "value": "0.23 ± 0.08"}, {"measurement": "T/C (%)", "setting": "[14]", "value": 4.9, "unit": "%"}, {"measurement": "Tumor inhibition rate (%)", "setting": "[14]", "value": 96.7, "unit": "%"}, {"measurement": "Tumor weight (g, X ± S.D.)", "setting": "[14]", "value": "0.055 ± 0.037", "unit": "g"}, {"measurement": "Final body weight change (%)", "setting": "[14]; nude mouse", "value": 2.9, "unit": "%"}, {"measurement": "T/C (%)", "setting": "[15]", "value": 0.6, "unit": "%"}, {"measurement": "Tumor inhibition rate (%)", "setting": "[15]", "value": 99.7, "unit": "%"}, {"measurement": "Final body weight change (%)", "setting": "[15]; nude mouse", "value": "−4.6", "unit": "%"}, {"measurement": "IC50", "setting": "[16]; Adding βGU", "value": 0.0085, "unit": "µM"}, {"measurement": "IC50", "setting": "[16]; No βGU", "value": 0.242, "unit": "µM"}, {"measurement": "IC50", "setting": "[17]; Adding βGU", "value": 0.024, "unit": "µM"}, {"measurement": "IC50", "setting": "[17]; No βGU", "value": 1.14, "unit": "µM"}, {"measurement": "IC50", "setting": "[18]; Adding βGU", "value": 0.0052, "unit": "µM"}, {"measurement": "IC50", "setting": "[18]; No βGU", "value": 0.147, "unit": "µM"}, {"measurement": "IC50", "setting": "[19]; Adding βGU", "value": 0.014, "unit": "µM"}, {"measurement": "IC50", "setting": "[19]; No βGU", "value": 0.219, "unit": "µM"}]}]}
